Test results reported in patent US11479561B2, “Tetrahydroisoquinoline derivatives” (Cytokinetics, Incorporated, priority 2016, dated 2022).
pEC50: −log10 of the molar value.

Assays:
[1] = test system: ankle plantarflexor muscle; experiment: Rat isometric ankle plantarflexor muscle force; type: in vivo, Sprague Dawley rats; conditions: estimated, concentration at which muscle force is 50% of the pre-dose maximum tension, 30 Hz stimulation, continuous intravenous infusion over 60 min
Description: Female Sprague Dawley rats were placed under a stable anesthesic plane with inhaled isoflurane (1-5%). One incision was made on the mid-thigh region of the right leg to expose the sciatic nerve. To prevent co-contraction of the ankle dorsiflexors, an additional incision was made lateral to the patella to isolate and sever the peroneal nerve. Rats were then placed on a temperature-maintained in situ muscle analysis rig (Aurora Scientific, Model 806C). The knee was immobilized in a clamp between two sharpened screws and the foot was taped to a footplate attached to a force transducer (Aurora Scientific, Ontario, Canada). Stainless steel needle electrodes (0.10 mm) were hooked around the exposed sciatic nerve. Isometric ankle plantarflexor muscle contractile force was assessed with the ankle joint at 90° flexion. A 30 Hz electrical stimulation (under supramaximal voltage conditions) was applied to the nerve and the resulting muscle force was recorded via a servomotor. A pre-dose 30 Hz force response was established as the baseline force. A pre-dose 150 Hz force response was established as the maximum isometric force. Compounds were formulated in 50% polyethylene glycol (PEG): 16% Cavitron: 10% dimethylacetamide (DMA) and administered by continuous intravenous infusion over a sixty minute period. The muscle force response to compound was measured every two minutes over the dosing period. Data was reported as an estimated EC50 value, which is the concentration at which muscle force is 50% of the pre-dose maximum tension.

[2] = test system: rabbit skeletal myofibrils (approximately 90% fast fibers); experiment: Activation of fast skeletal myofibrils (PUMA coupled-enzyme ATPase assay); type: biochemical; conditions: concentration at which the compound increased the enzymatic activity by 40%; calcium level pCa25
Procedure: Preparation of fast skeletal myofibrils: Rabbit skeletal myofibrils were prepared based upon the method of Herrmann et al. (Biochem. 32(28):7255-7263(1993). Myofibrils were prepared from rabbit psoas muscle purchased from Pel-Freez Biologicals (Arkansas) within 2 days of ordering, stored on ice. Minced muscle was homogenized in 10 volumes of ice-cold “standard” buffer (50 mM Tris, pH 7.4, 0.1 M KOAc, 5 mM KCl, 2 mM dithiothreitol (DTT), 0.2 mM phenylmethylsulfonyl fluoride (PMSF), 10 μM leupeptin, 5 μM pepstatin, and 0.5 mM sodium azide) containing 5 mM ethylenediaminetetraacetic acid (EDTA) and 0.5% Triton X-100 using an Omni-Macro homogenizer. Myofibrils were recovered by low speed centrifugation (3000 rpm for 10 minutes) and washed 2 times in the Triton X-100 containing buffer to ensure removal of cellular membrane. Following the Triton washes, myofibrils were washed 3 times in “standard” buffer containing 2 mM magnesium acetate. A final wash in assay buffer (12 mM piperazine-1,4-bis(2-ethanesulfonic acid) (PIPES), pH 6.8, 60 mM KCl, 1 mM DTT) was performed and brought to 10% sucrose for flash freezing in liquid nitrogen and storage at −80° C.
Activation of Fast Skeletal Myofibrils: Fast fiber activators were identified by Measuring the enzymatic activity of muscle myofibril preparations using the proprietary PUMA (trademark) (see, e.g., U.S. Pat. Nos. 6,410,254, 6,743,599, 7,202,051, and 7,378,254) assay system. Myofibril preparations consisted of rabbit skeletal muscle (approximately 90% fast fibers) that had been mechanically homogenized and washed with a detergent (Triton X-100) to remove cellular membranes. This preparation retained all of the sarcomeric components in a native conformation and the enzymatic activity was still regulated by calcium. Compounds were tested using a myofibril suspension and a level of calcium sufficient to increase enzymatic activity of the myofibrils to 25% of their maximal rate (termed pCa25). Enzymatic activity was tracked via a pyruvate kinase and lactate dehydrogenase-coupled enzyme system. This assay regenerates myosin-produced ADP into ATP by oxidizing NADH, producing an absorbance change at 340 nm. The buffering system was 12 mM PIPES, 2 mM MgCl2, 1 mM DTT at pH 6.8 (PM12 buffer).

rat model of post-SCI = experiment: Basso, Beattie, and Bresnahan (BBB) score of post-spinal cord injury (SCI); type: in vivo, SD rats; conditions: post-SCI rats; day 6-7, 13-14, 20-21 after SCI; FIG. 8
Procedure: Preparation of the rat model of post-SCI: The rat model was prepared based on the method of Scheff et. al. (J Neurotrauma. 2003 February; 20(2):179-93.) which uses Infinite Horizon impactor (IH-0400; Precision Systems and Instrumentation). Female SD rats (10 week old) were anesthetized with a mixture of 0.3 mg/kg medetomidine, 4 mg/kg midazoram, and 5 mg/kg butorphanol (s.c.). The dorsal region of the rats was incised and the thoracic spine from T8 to T12 was exposed. Subsequently, laminectomy was performed on T9 and T10. On the stage of IH-0400, the exposed spinal column of the rats was stabilized by clamping with two forceps attached to the joints of IH-0400. Each of the joint and the forceps was tightly locked. Injury of T9 and T10 was induced with a rod impact of 210 kdyn. After dorsal closure, the rats were housed one per cage under the postoperative care which includes the injections of 5 mL saline s.c. and 50 mg/kg Cefamezin s.c twice a day for a week after the SCI, and includes the manual expression of the bladder of the rats twice a day using Crede maneuver until the function of the bladder recovers. […] The effect of Example Compound 52 or vehicle was analyzed using unpaired t test (a probability value of less than 0.05 was considered as a significant difference). Data were expressed as the mean±SEM.

Row | Structure (SMILES) | pEC50 ([1]; Rattus norvegicus, iv, 1 h) | pEC50 [1] | AC1.4 [2] [µM] | BBB score (rat model of post-SCI)
1 | CCC1(CC)C(=O)NC2(COC2)c2ccc(OCC(F)(F)F)nc21 [compound 11] | 4.77 | – | – | –
2 | CCC1(CC)C(=O)NC2(COC2)c2cccnc21 [compound 12] | 4.47 | – | – | –
3 | CCC1(CC)C(=O)NC2(COC2)c2ccc(C(F)F)nc21 [compound 13] | 4.71 | – | – | –
4 | CCC1(CCO)C(=O)NC2(COC2)c2ccc(OC(F)F)nc21 (stereo not drawn) [compound 15] | 4.79 | – | – | –
5 | CCC1(CC)C(=O)NC2(COC2)c2ccc(C#N)nc21 [compound 16] | 4.89 | – | – | –
6 | CC1(C)C(=O)NC2(COC2)c2ccc(OC(F)F)nc21 [compound 18] | 4.80 | – | – | –
7 | CC1(CCO)C(=O)NC2(COC2)c2ccc(OC(F)F)nc21 (stereo not drawn) [compound 19] | 4.46 | – | – | –
8 | CC1(C)C(=O)NC2(COC2)c2ccc(C#N)cc21 [compound 20] | 4.52 | – | – | –
9 | CC1(CCO)C(=O)NC2(COC2)c2ccc(Cl)cc21 (stereo not drawn) [compound 35, 6-chloro-4-(2-hydroxyethyl)-4-methyl-2H-spiro[isoquinoline-1,3′-oxetan]-3(4H)-one] | – | 4.64 | 0.565 | –
10 | CCC1(CC)C(=O)NC(C)(C)c2ccc(Br)cc21 [compound 49] | 5.09 | – | <0.077 | –
11 | CC1(C)C(=O)NC2(COC2)c2ccc(Cl)cc21 [compound 52, 6-chloro-4,4-dimethyl-2H-spiro[isoquinoline-1,3′-oxetan]-3(4H)-one] | 4.59 | – | 0.326 | increased BBB score
12 | CCC1(CC)C(=O)NC2(COC2)c2ccc(C#N)cc21 [compound 55, 4,4-diethyl-3-oxo-3,4-dihydro-2H-spiro[isoquinoline-1,3′-oxetane]-6-carbonitrile] | 5.12 | – | 0.141 | –
13 | CC1(CCO)C(=O)NC2(COC2)c2ccc(C#N)cc21 (stereo not drawn) [compound 56] | 4.52 | – | 2.067 | –
14 | CCC1(CC)C(=O)NC(C)(C)c2ncc(C#N)cc21 [compound 57] | 4.55 | – | 0.976 | –
15 | CC1(C)NC(=O)C(C)(C)c2cc(C#N)ccc21 [compound 61] | 4.99 | – | 0.537 | –
16 | CCC1(CC)C(=O)NC(C)(C)c2ccc(C#N)nc21 [compound 64] | 5.00 | – | 0.390 | –
17 | CCC1(CC)C(=O)NC(C)(C)c2ncc(Cl)cc21 [compound 72] | 4.81 | – | 0.420 | –
18 | CC1(C)NC(=O)C(C)(C)c2cc(Cl)cnc21 [compound 73] | 4.30 | – | 1.571 | –
19 | CCC1(CC)C(=O)NC2(COC2)c2ncc(Cl)cc21 [compound 74] | 4.81 | – | 0.902 | –
20 | CCC1(CCO)C(=O)NC2(COC2)c2ccc(C#N)nc21 (stereo not drawn) [compound 101] | 4.62 | – | 2.228 | –
21 | CCC1(CCO)C(=O)NC2(COC2)c2ccc(C(F)F)nc21 (stereo not drawn) [compound 103] | 4.64 | – | 1.247 | –
22 | CCC1(CCO)C(=O)NC2(COC2)c2ccc(C(F)F)nc21 (stereo not drawn) [compound 104] | – | 4.52 | 5.017 | –
23 | CCC1(CC)C(=O)NC2(COC2)c2ncc(C#N)nc21 [compound 106] | 4.82 | – | 0.494 | –
24 | CCC1(C)C(=O)NC(C)(C)c2ccc(C#N)nc21 (stereo not drawn) [compound 108] | 4.64 | – | 0.450 | –
25 | CC1(C)NC(=O)C(C)(Cc2cc[nH]n2)c2nc(C#N)ccc21 (stereo not drawn) [compound 109] | 4.40 | – | 1.919 | –
26 | CC1(CC(F)F)C(=O)NC2(COC2)c2ccc(OC(F)F)nc21 (stereo not drawn) [compound 113] | 5.10 | – | 0.271 | –
